From PubChem BioAssay AID1259411 (Chemical Carcinogenesis Research Information System (CCRIS), 2018)
The source made the active and inactive calls. No rule for the calls is given here.

Tested on: rodent carcinogenicity bioassays, tumor incidence
Test: CCRIS carcinogenicity studies
In short: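 NCI-built, expert-reviewed records of carcinogenicity and related test outcomes (mutagenicity, tumor promotion/inhibition) compiled from published and report sources, historical span 1985-2011, not updated.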

Measured: carcinogen call

O=C(O)CCCc1ccc(N(CCCl)CCCl)cc1
active: Species: HUMAN, Route: ORAL, Tumor Site: Type of Lesion: HEMATOPOIETIC SYSTEM (LEUKEMIA) active; positive | Species: MOUSE, Strain/Sex: BALB/FEMALE, Route: INTRAGASTRIC, Dose: 0, 1 MG/KG SUSPENDED IN WATER 5/WK FOR 12 WK (STUDY DURATION: 120 WK), Tumor Site: Type of Lesion: LUNG: ADENOMA active; positive | Species: MOUSE, Strain/Sex: BALB/FEMALE, Route: INTRAGASTRIC, Dose: 0, 1 MG/KG SUSPENDED IN WATER 5/WK FOR 12 WK (STUDY DURATION: 120 WK), Tumor Site: Type of Lesion: LYMPHORETICULAR SYSTEM: TUMOR active; positive | Species: MOUSE, Strain/Sex: BALB/FEMALE, Route: INTRAGASTRIC, Dose: 0, 1 MG/KG SUSPENDED IN WATER 5/WK FOR 12 WK (STUDY DURATION: 120 WK), Tumor Site: Type of Lesion: MAMMARY GLAND: ADENOMA OR ADENOCANTHOMA active; positive | Species: MOUSE, Strain/Sex: BALB/MALE, Route: INTRAGASTRIC, Dose: 0, 1 MG/KG SUSPENDED IN WATER 5/WK FOR 12 WK (STUDY DURATION: 120 WK), Tumor Site: Type of Lesion: LUNG: ADENOMA active; positive | Species: MOUSE, Strain/Sex: BALB/MALE, Route: INTRAGASTRIC, Dose: 0, 1 MG/KG SUSPENDED IN WATER 5/WK FOR 12 WK (STUDY DURATION: 120 WK), Tumor Site: Type of Lesion: LYMPHORETICULAR SYSTEM: TUMOR active; positive | Species: MOUSE, Strain/Sex: STRAIN-A/MALE,FEMALE, Route: INTRAPERITONEAL, Dose: 9.6, 37, 150, 420 MG/KG (TOTAL DOSES) IN 0.5% ACACIA OR 0.01% TRICAPRYLIN SOLN 3/WK FOR 4 WK, Dose: 9.6, 37, 150, 420 MG/KG (TOTAL DOSES) IN 0.5% ACACIA OR 0.01% TRICAPRYLIN SOLN 3/WK FOR 4 WK, Tumor Site: Type of Lesion: LUNG: ADENOMA, ADENOCARCINOMA active; positive | Species: MOUSE, Strain/Sex: SWISS/FEMALE, Route: INTRAPERITONEAL, Dose: 1.5, 3.0 MG/KG 3/WK FOR 6 MO, Tumor Site: Type of Lesion: LUNG: ADENOMA, LYMPHATIC SYSTEM: LYMPHOSARCOMA, OVARIES, Tumor Site: Type of Lesion: LUNG: ADENOMA, LYMPHATIC SYSTEM: LYMPHOSARCOMA, OVARIES active; positive | Species: MOUSE, Strain/Sex: SWISS/MALE, Route: INTRAPERITONEAL, Dose: 1.5, 3.0 MG/KG 3/WK FOR 6 MO, Tumor Site: Type of Lesion: HEMATOPOIETIC SYSTEM (LEUKEMIA), LYMPHATIC SYSTEM: LYMPHOSARCOMA, LUNG: ADENOMA, Tumor Site: Type of Lesion: HEMATOPOIETIC SYSTEM (LEUKEMIA), LYMPHATIC SYSTEM: LYMPHOSARCOMA, LUNG: ADENOMA active; positive | Species: RAT, Strain/Sex: CD-1/MALE, Route: INTRAPERITONEAL, Dose: 2.2, 4.5 MG/KG 3/WK FOR 6 MO, Tumor Site: Type of Lesion: HEMATOPOIETIC SYSTEM (LEUKEMIA), LYMPHATIC SYSTEM: LYMPHOSARCOMA, RETICULAR CELL SARCOMA active; positive | Species: RAT, Strain/Sex: SPRAGUE-DAWLEY/FEMALE, Route: GAVAGE, Dose: 0, 3 MG/KG ADMINISTERED 1, 2, 4.5 OR 9 TIMES PER MO FOR 18 MO TO GIVE MEDIAN TOTAL DOSES OF 54, 108, 234, 425 MG/KG (STU, Dose: 0, 3 MG/KG ADMINISTERED 1, 2, 4.5 OR 9 TIMES PER MO FOR 18 MO TO GIVE MEDIAN TOTAL DOSES OF 54, 108, 234, 425 MG/KG (STU, Tumor Site: Type of Lesion: MAMMARY GLAND: TUMOR, NERVOUS SYSTEM: TUMOR, EAR CANAL: TUMOR, Tumor Site: Type of Lesion: MAMMARY GLAND: TUMOR, NERVOUS SYSTEM: TUMOR, EAR CANAL: TUMOR active; positive

N#Cc1cc(Br)c(O)c(Br)c1
active: Species: Mouse, Strain/Sex: Crl:CD-1 (ICR)BR VAF/Plus/Female (60/sex/group), Route: Oral, Dose: 0, 20, 75, 300 ppm in feed for 78-80 wk, Dose: 0, 20, 75, 300 ppm in feed for 78-80 wk, Tumor Site: Type of Lesion: Liver: Hepatocellular adenoma and carcinoma combined (0 ppm, 2/60; 300 ppm, 7/59) active; positive at high dose only; purity 94.4% | Species: Mouse, Strain/Sex: Crl:CD-1 (ICR)BR VAF/Plus/Male (60/sex/group), Route: Oral, Dose: 0, 20, 75, 300 ppm in feed for 78-80 wk, Dose: 0, 20, 75, 300 ppm in feed for 78-80 wk, Tumor Site: Type of Lesion: Liver: Hepatocellular adenoma and carcinoma combined (5/60; 16/60; 12/60; 23/60) active; positive; purity 94.4%

Cc1ccc2c(c1[N+](=O)[O-])C(=O)c1ccccc1C2=O
active: Species: MOUSE, Strain/Sex: B6C3F1/FEMALE, Route: ORAL, Dose: 0, 0.03, 0.06% IN DIET, Dose: 0, 0.03, 0.06% IN DIET, Tumor Site: Type of Lesion: LIVER: HEMANGIOSARCOMA active; positive | Species: MOUSE, Strain/Sex: B6C3F1/MALE, Route: ORAL, Dose: 0, 0.03, 0.06% IN DIET, Dose: 0, 0.03, 0.06% IN DIET, Tumor Site: Type of Lesion: LIVER: HEMANGIOSARCOMA active; positive | Species: RAT, Strain/Sex: F344/MALE, Route: ORAL, Dose: 0, 0.12, 0.06% IN DIET, Dose: 0, 0.12, 0.06% IN DIET, Tumor Site: Type of Lesion: LIVER: HEPATOCELLULAR CARCINOMA OR NEOPLASTIC NODULE, INTEGUMENTARY SYSTEM (SUBCUTANEOUS TISSUE): FIBROMA active; positive

O=CC1CO1 (configuration not stated)
active: Species: MOUSE, Route: DERMAL, Tumor Site: Type of Lesion: INTEGUMENTARY SYSTEM (SKIN) active; positive | Species: MOUSE, Route: SUBCUTANEOUS, Tumor Site: Type of Lesion: INJECTION SITE active; positive

CCC(Cl)C(Cl)C(Cl)CC(Cl)C(Cl)C(C)Cl (configuration not stated)
active: Species: MOUSE, Strain/Sex: B6C3F1/FEMALE, Route: GAVAGE, Dose: 0, 125, 250 MG/KG IN CORN OIL 5 D/WK FOR 103 WK, Dose: 0, 125, 250 MG/KG IN CORN OIL 5 D/WK FOR 103 WK, Tumor Site: Type of Lesion: LIVER: HEPATOCELLULAR ADENOMA, HEPATOCELLULAR ADENOMA OR CARCINOMA, THYROID GLAND: FOLLICULAR CELL ADENOMA, FOLLICULAR C active; positive | Species: MOUSE, Strain/Sex: B6C3F1/MALE, Route: GAVAGE, Dose: 0, 125, 250 MG/KG IN CORN OIL 5 D/WK FOR 103 WK, Dose: 0, 125, 250 MG/KG IN CORN OIL 5 D/WK FOR 103 WK, Tumor Site: Type of Lesion: LIVER: HEPATOCELLULAR ADENOMA, HEPATOCELLULAR ADENOMA OR CARCINOMA active; positive | Species: RAT, Strain/Sex: F344/FEMALE, Route: GAVAGE, Dose: 0, 312, 625 MG/KG IN CORN OIL 5 D/WK FOR 104 WK, Dose: 0, 312, 625 MG/KG IN CORN OIL 5 D/WK FOR 104 WK, Tumor Site: Type of Lesion: LIVER: NEOPLASTIC NODULE, NEOPLASTIC NODULE OR HEPATOCELLULAR CARCINOMA, THYROID GLAND: FOLLICULAR CELL ADENOMA OR CARCI active; positive | Species: RAT, Strain/Sex: F344/MALE, Route: GAVAGE, Dose: 0, 312, 625 MG/KG IN CORN OIL 5 D/WK FOR 104 WK, Dose: 0, 312, 625 MG/KG IN CORN OIL 5 D/WK FOR 104 WK, Tumor Site: Type of Lesion: LIVER: NEOPLASTIC NODULE, NEOPLASTIC NODULE OR HEPATOCELLULAR CARCINOMA, KIDNEY: TUBULAR CELL ADENOMA OR ADENOCARCINOMA active; positive
